Legend:
human LXRα = molecular target: T1, human LXRα (Homo sapiens, UniProt Q13133); experiment: Radioligand competition binding scintillation proximity assay, LXRα
T1 construct: made in house; host or cells: E. coli (pGEX-KT vector)
T1 sequence (Q13133 164-447): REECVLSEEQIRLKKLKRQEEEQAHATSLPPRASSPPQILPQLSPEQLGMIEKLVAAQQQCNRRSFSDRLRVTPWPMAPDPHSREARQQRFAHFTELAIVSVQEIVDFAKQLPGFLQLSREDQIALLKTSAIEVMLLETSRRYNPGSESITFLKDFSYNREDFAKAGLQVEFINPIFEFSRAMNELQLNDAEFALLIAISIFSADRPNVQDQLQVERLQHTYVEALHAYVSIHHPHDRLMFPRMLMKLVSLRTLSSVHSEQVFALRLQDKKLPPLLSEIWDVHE
Source text: Radioligand Competition Binding Scintillation Proximity Assays

Caco-2 cells = experiment: Cholesterol efflux from cultured human Caco-2 cells; type: cell-based; settings: 10 μg/ml apoA-I, 24 hours, mean of quadruplicate incubations
Description: Caco-2 cells, which are of human origin, were obtained from ATCC and grown in Opti-MEM (Gibco #51985-034) containing 10% FCS, non-essential amino acids (Gibco #11140-050), and vitamins (Gibco # 11120-052). Caco-2 cells were plated at 100,000 cells/well in 48-well plates. After four days the cells had reached confluence, and were then labeled with ^3H-cholesterol by incubation for 24 hours in fresh growth media containing ^3H-cholesterol (10 μCi/mi). Following labeling with ^3H-cholesterol, cells were washed and incubated an additional 24 hours in serum-free media containing 1 mg/ml BSA, to allow for equilibration of ^3H-cholesterol with intracellular cholesterol. Cholesterol efflux was initiated by adding 10 μg/ml apoA-I, with or without compound, in serum-free medium. Compounds were added to cell culture medium from DMSO solutions, and control cells received an equivalent amount of DMSO, never exceeding 0.1%. After 24 hours, media were harvested and cells dissolved in 0.1 M NaOH. Media were briefly centrifuged to remove non-adherent cells, and then aliquots of both the supernatants and the dissolved cells were subjected to liquid scintillation spectrometry to determine radioactivity. Cholesterol efflux is expressed as a percentage, calculated as (^3H-cholesterol in riedium/(^3H-cholesterol in medium+^3H-cholesterol in cells))×100.

Kd (human LXRα) [µM] | SMILES | % cholesterol efflux (Caco-2 cells; compound 30 nM) [%] | % cholesterol efflux (Caco-2 cells; compound 100 nM) [%] | % cholesterol efflux (Caco-2 cells; compound 300 nM) [%] | % cholesterol efflux (Caco-2 cells; compound 1000 nM) [%] | % cholesterol efflux (Caco-2 cells; compound 3000 nM) [%] | % cholesterol efflux (Caco-2 cells; compound 10000 nM) [%]
~0.015 | CCCc1c(OCCCSc2ccc(CC(=O)O)cc2Cl)ccc2c(C(F)(F)F)noc12 [Compound A] |  |  |  |  |  | 
 | CCCc1c(OCCCN(C)C(=O)Nc2ccccn2)ccc2c(C(F)(F)F)noc12 [Compound (18), N′-(2-pyridyl)-N-methyl-N-(3-{[7-propyl-3-(trifluoromethyl)-1,2-benzisoxazol-6-yl]oxy}propyl)urea] | 3.4 | 3.5 | 4.9 | 5.7 | 6.8 | 5.6
